Laboratory results from patent publication US10266506B2, “Compounds for use in imaging, diagnosing and/or treatment of diseases of the central nervous system or of tumors” (PIRAMAL IMAGING SA, priority 2007, dated 2019).
“Also recorded” adds a separate entry of the source.

How the values were obtained:
[1] = target: T1, MAO B (Homo sapiens, UniProt P27338); assay: Autoradiography with [18F]compound 13 on human brain sections (Alzheimer's disease), blocking with MAO B inhibitors; assay type: binding
T1 construct: Autoradiography using [^18F]compound 13 on human brain slices from four brains from patients with diagnosis of Alzheimer's disease; from tissue; host or cells: human brain sections (Alzheimer's disease patients and normal controls), 18 µm cryosections
T1 sequence (P27338 1-520): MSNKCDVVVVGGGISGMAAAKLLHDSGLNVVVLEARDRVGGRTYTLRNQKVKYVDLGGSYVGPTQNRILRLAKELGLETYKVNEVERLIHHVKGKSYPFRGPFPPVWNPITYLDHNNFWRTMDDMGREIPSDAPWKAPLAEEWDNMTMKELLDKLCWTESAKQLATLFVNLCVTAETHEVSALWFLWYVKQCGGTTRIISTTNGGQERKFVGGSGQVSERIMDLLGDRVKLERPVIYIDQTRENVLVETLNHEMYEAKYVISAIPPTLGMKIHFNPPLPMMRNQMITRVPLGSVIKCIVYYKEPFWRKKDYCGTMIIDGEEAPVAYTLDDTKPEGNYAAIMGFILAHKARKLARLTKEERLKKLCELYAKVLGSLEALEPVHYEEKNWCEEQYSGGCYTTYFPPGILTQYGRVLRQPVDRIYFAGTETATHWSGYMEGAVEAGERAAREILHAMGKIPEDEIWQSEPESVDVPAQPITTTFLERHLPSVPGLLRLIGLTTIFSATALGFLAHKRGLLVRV
Procedure: (§1) Thereafter, the slides were removed and brought to room temperature. […] The sections were dipped two times into ice cold distilled water, dried at room temperature and exposed to PhosphorImanger plates (FUJI BAS 5000) over night. For detection of the specificity of the signals an excess (10 μM) of Deprenyl, Pargylin (both for MAO B) and Clorgyline (for MAO A), respectively, was used. After exposure, the sections were immunohistochemically stained using a standard protocol with an anti-GFAP antibody to detect reactive astrocytes. Amyloid β plaques were detected with BAY 949172 (Rowe C C et al. Lancet Neutol 2008; 7: 129-135) using the binding protocol as described above.
FIG. 1A Autoradiographic signal after exposure on the PhosphorImager plate.
FIG. 2A Autoradiographic signal after exposure on the PhosphorImager plate.

[2] = target: T2, MAO A (Homo sapiens, UniProt P21397); assay: Autoradiography with [18F]compound 13 on human brain sections, blocking with MAO A inhibitor clorgyline; assay type: binding; conditions: human AD brain slices; excess (10 μM) of Clorgyline
T2 construct: Autoradiography using [^18F]compound 13 on human brain slices from four brains from patients with diagnosis of Alzheimer's disease; from tissue; host or cells: human brain sections (Alzheimer's disease patients), 18 µm cryosections
T2 sequence (P21397 1-527): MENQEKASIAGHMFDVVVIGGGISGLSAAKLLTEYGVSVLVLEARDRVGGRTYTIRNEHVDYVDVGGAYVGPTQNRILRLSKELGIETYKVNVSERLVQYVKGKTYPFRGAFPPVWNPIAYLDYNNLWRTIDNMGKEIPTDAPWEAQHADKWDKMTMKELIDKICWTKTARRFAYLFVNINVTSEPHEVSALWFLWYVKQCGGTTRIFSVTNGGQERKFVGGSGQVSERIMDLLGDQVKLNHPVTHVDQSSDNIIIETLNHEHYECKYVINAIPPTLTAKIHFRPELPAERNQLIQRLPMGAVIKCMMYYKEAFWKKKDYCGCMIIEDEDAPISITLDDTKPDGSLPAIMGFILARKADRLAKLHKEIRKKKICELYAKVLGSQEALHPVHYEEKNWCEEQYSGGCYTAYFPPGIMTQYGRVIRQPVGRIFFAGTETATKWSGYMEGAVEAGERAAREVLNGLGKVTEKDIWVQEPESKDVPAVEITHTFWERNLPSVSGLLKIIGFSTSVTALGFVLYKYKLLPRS
Procedure: as §1
FIG. 2A Autoradiographic signal after exposure on the PhosphorImager plate. Note the black dots in the tissue slices corresponding to areas with amyloid β plaques (see examples in FIG. 3).

[3] = Biodistribution in NMRI mice (gamma counter); assay type: in vivo
Procedure: For each time point 3 mice have been used. The mice were injected each with 0.178 MBq[^18F]compound 13. After the respective time points the mice were sacrificed, the organs taken out and measured in a gamma counter. The results were decay corrected.

[4] = PET brain uptake (time activity curves, SUV) in a cynomolgus monkey; assay type: in vivo; conditions: e.g. striatum
[5] = Plasma radioactivity and plasma metabolites after injection in a cynomolgus monkey; conditions: compared with [11C]Deprenyl (and compound 5)
From the text: Plasma radioactivity profiles have been monitored over time. […] In addition, metabolites occurring in plasma over time have been monitored (FIGS. 8 and 9) for both ligands.

[6] = literature report; cited from earlier work

C#CCN(C)[C@H](C[18F])Cc1ccccc1 [[^18F]compound 13, N-[(2S)-1-(^18F)fluoro-3-phenylpropan-2-yl]-N-methylprop-2-yn-1-amine]
correspondence of autoradiographic signal to reactive astrocytes ([1]; human AD brain slice, GFAP immunoreactivity): correspondence of the autoradiographic signal to reactive astrocytes is demonstrated | relation of autoradiographic signal to amyloid β plaque load ([1]; human AD brain slices, amyloid detected with BAY 949172): the signal density and intensity corresponds with the amyloid β plaque load | blocking of autoradiographic signal by MAO B inhibitors (specificity for MAO B) ([1]; human AD brain slices, excess (10 μM) of Deprenyl or Pargylin): the signals could be blocked with deprenyl and pargylin; also recorded: the signals could be completely blocked with deprenyl | blocking of autoradiographic signal by MAO A inhibitor clorgyline [2]: not with clorgyline | brain uptake of radioactivity ([3]; 2 min p.i.): 7.5±0.04 % ID/g | brain radioactivity ([3]; 30 min p.i.): 2.10±0.33 % ID/g | brain radioactivity ([3]; after 4 hours): 1.34±0.26 % ID/g | uptake and enrichment in specific regions, higher than [11C]Deprenyl [4]: about 10% | in vivo metabolic stability [5]: improved metabolic stability; also recorded: more stable than [^11C]Deprenyl

C#CCN(C)CCCCCC[18F] [compound 5]
degradation to metabolite (reported) [6]: degraded quickly towards a polar [^18F]-labelled metabolite
